Assay results reported in PMC4389225, “Triaminopyrimidine is a fast-killing and long-acting antimalarial clinical candidate” (Nature Communications, 2015).

Assays:
Dd2 PfATP4 NITD609 = assay: [3H]-hypoxanthine incorporation assay, Dd2 PfATP4 NITD609 resistant; type: cell-based; settings: Plasmodium falciparum
Experimental: (§1) Supplementary Table 3: Compound 9 and 12 retain their activity against Pf strains harbouring mutations to novel antimalarial agents in clinical development. Compound 9 and 12 were tested for their antiplasmodial activity against a panel of Pf strains known to harbour mutations conferring resistance to novel agents under clinical development. Parasite growth inhibition is measured using the [3H]-hypoxanthine incorporation assay. IC50s are established for each strain (n ≥2) and compared to the IC50 of Dd2 (standard pan-resistant […]

Pf3D7^0087/N9 = assay: animal or person; type: in vivo, Plasmodium falciparum
Text: All animal studies were ethically reviewed and carried out in accordance with European Directive 86/609/EEC and the GSK Policy on the Care, Welfare and Treatment of Animals. During this experiment, female mice were used from the batch NSGJ 01/1 (The Jackson Laboratory, USA). The therapeutic efficacy of compound 12 against Pf3D7^0087/N9 was studied using a ‘4-day test’ reported earlier. Briefly, NODscidIL2Rγ^null mice engrafted with human erythrocytes were infected with 20 × 10^6 Pf-infected erythrocytes. Infections were performed by i.v. inoculation. All mice were randomly assigned to their corresponding treatment. The treatment started at day 3 and finished at day 6 after infection. The compound was administered orally as a suspension in 0.5% w/v hydroxypropyl methylcellulose (HPMC) with 0.1% v/v Tween 80, using an oral gavage at a maximum dose volume of 20 ml kg^−1. Vehicle alone was administered in untreated mice. In all cases, parasitemia was assessed in samples from peripheral blood obtained at days 3–7 after infection. A qualitative analysis of the effect of treatment on Pf3D7^0087/N9 was assessed by microscopy and flow cytometry. Fresh samples of peripheral blood from Pf-infected mice were stained with TER-119-Phycoerythrine (marker of murine erythrocytes) and SYTO-16 (nucleic acid dye) and then analysed by flow cytometry (FACS Calibur, BD). Microscopy analysis was performed with Giemsa-stained blood smears from samples taken at days 5 and 7 (48 and 96 h after starting treatment, respectively).
PK-PD model for the metabolite (compound 9) alone. Pharmacokinetic data from the Pf/SCID model was linked to efficacy using the following equation5.
Where P [log (total no. of parasites / mouse)], Kgro (growth rate constant), Pmax (log (maximum no. of parasites / mouse)), Kkill (maximum kill rate constant), H (Hill slope), EC50 (concentration required for achieving half maximal kill rate) and Ce (concentration of the drug in the effect compartment). Percent parasitemia values were converted into total number of parasites in mouse blood assuming […] (9.23 log10) RBCs per mouse. The lower limit of quantitation for % parasitemia was 0.01% or 5.23 log10. Effect compartment was used for modelling the delay observed in efficacy at a lower dose. […]

PfATP4 Cpd 2 = assay: [3H]-hypoxanthine incorporation assay, PfATP4 Cpd 2 resistant; type: cell-based; settings: Plasmodium falciparum
Experimental: as §1

Dd2 = assay: [3H]-hypoxanthine incorporation assay, Dd2; type: cell-based, Plasmodium falciparum; settings: Plasmodium falciparum, DD2
Experimental: 9 and 12 were tested for their antiplasmodial activity against a panel of Pf strains known to harbour mutations conferring resistance to novel agents under clinical development. Parasite growth inhibition is measured using the [3H]-hypoxanthine incorporation assay. IC50s are established for each strain (n ≥2) and compared to the IC50 of Dd2 (standard pan-resistant

Cpd 4 Unpublished Target = assay: [3H]-hypoxanthine incorporation assay, Cpd 4 Unpublished Target resistant; type: cell-based; settings: Plasmodium falciparum
Experimental: as §1

[1] = system: asexual blood stage of Pf; assay: Pf asexual blood stage potency (Pf IC50); type: cell-based, Plasmodium falciparum
Text: The TAPs series emerged from a high-throughput screen (HTS) of 500,000 compounds from the AstraZeneca corporate library against the asexual blood stage of Pf using a high-content image-based approach. The procedure for synthesis of compounds 1-6, 10, 11 using a scheme similar to Fig. 1 is provided in Supplementary Note 1. The initial hit provided multiple diversification points for a robust lead optimization campaign. […] Compounds with 2-pyridyl modification at the 2-amino position of pyrimidine core improved potency and solubility at the cost of potent activity against hERG and acetylcholine esterase (AChE; compounds 3-6; Table 1). […] The observed hERG and AChE selectivity improvement with 7 could be attributed to the polar nature of the pyrazole group and its role in reducing the pKa of the core pyrimidine ring. […] To assess the potential for cross-resistance, representative TAPs were screened against a panel of clinical isolates and in vitro-generated mutant strains displaying varying mechanisms of resistance to antimalarial agents currently in use and under development, respectively, (Supplementary Tables 1–3).

Dd2 PI4K Cpd 1 = assay: [3H]-hypoxanthine incorporation assay, Dd2 PI4K Cpd 1 resistant; type: cell-based; settings: Plasmodium falciparum
Experimental: as §1

Pf 7G8 = assay: microbe, parasite or virus in culture; type: cell-based; settings: Plasmodium falciparum
Text: (§2) tested in duplicate from two independent experiments using a SYBR-Green based assay2.
(§3) (1 picture or pasted object on this page, not shown here)

Pf DD2 = assay: microbe, parasite or virus in culture; type: cell-based; settings: Plasmodium falciparum
Text: as §2, §3

Pf K1 = assay: microbe, parasite or virus in culture; type: cell-based; settings: Plasmodium falciparum
Text: as §2, §3

Pf NF54 = assay: microbe, parasite or virus in culture; type: cell-based; settings: Plasmodium falciparum
Text: as §2, §3

Pf W2 = assay: microbe, parasite or virus in culture; type: cell-based; settings: Plasmodium falciparum
Text: as §2, §3

Pf SB1 = assay: microbe, parasite or virus in culture; type: cell-based; settings: Plasmodium falciparum
Text: as §2, §3

[2] = PK in the blood of infected Pf/SCID mice; type: in vivo, mouse; settings: for CL/F: SCID, mouse, whole blood
Experimental: Peripheral blood samples (25 μl) were taken at different times (0.25, 0.5, 1, 2, 4, 6, 8 and 23 h), mixed with 25 μl of H2O Mili-Q and immediately frozen on dry ice. The frozen samples were stored at −80 °C until analysis. Vehicle-treated mice experienced the same blood-sampling regimen. Blood samples were processed by liquid–liquid extraction by mixing 10 μl diluted blood with 180 μl AcN:MeOH (80:20; v-v) mixture. Quantitative analysis by Liquid chromatography-tandem mass spectrometry (LC-MS/MS) was performed using UPLC (Waters) and Sciex API4000. The lower limit of quantification in this assay was 0.005 μg ml^−1.

Dd2 DHODH DSM265 = assay: [3H]-hypoxanthine incorporation assay, Dd2 DHODH DSM265 resistant; type: cell-based; settings: Plasmodium falciparum
Experimental: as §1

Dd2 bc-1 ELQ-300 = assay: [3H]-hypoxanthine incorporation assay, Dd2 bc-1 ELQ-300 resistant; type: cell-based, Plasmodium falciparum; settings: Plasmodium falciparum, DD2
Experimental: as §1

PfATP4 Cpd 3 = assay: [3H]-hypoxanthine incorporation assay, PfATP4 Cpd 3 resistant; type: cell-based; settings: Plasmodium falciparum
Experimental: as §1

[3] = 10 mg kg-1, one compartment POPK model
[4] = 30 mg kg-1, one compartment POPK model

**Q.** With `Cc1nc(Nc2ncc(N3CCNC(C)C3)c(Nc3cc(C)n(C)n3)n2)cc(C2CC2)c1F.Cl.Cl` (stereo not shown) [compound 9, N2-(4-cyclopropyl-5-fluoro-6-methylpyridin-2-yl)-N4-(1,5-dimethyl-1H-pyrazol-3-yl)-5-(3-methylpiperazin-1-yl)pyrimidine-2,4-diamine dihydrochloride] as the compound, how does the IC50 (Dd2 PfATP4 NITD609) read?
**A.** The IC50 was 0.0086 µM.

**Q.** What about the “Kkill (maximum kill rate constant)” value (Pf3D7^0087/N9; PK-PD model for compound 9 alone) of the same compound?
**A.** The value was 0.2 h⁻¹.

**Q.** And the EC50 (Pf3D7^0087/N9; Plasmodium falciparum, in Mus musculus, read-out: EC50 (blood concentration for half-maximal kill rate))?
**A.** Its EC50 is 0.309 µM.

**Q.** And the Kkillm (Pf3D7^0087/N9; metabolite, Fixed)?
**A.** Its Kkillm is 0.2 h⁻¹.

**Q.** And the IC50 (PfATP4 Cpd 2)?
**A.** The IC50 was 0.011 µM.

**Q.** And the IC50 (Dd2)?
**A.** The IC50 was 0.006 µM.

**Q.** And the IC50 (Cpd 4 Unpublished Target)?
**A.** The IC50 was 0.0094 µM.

**Q.** What about the IC50 ([1]; Plasmodium falciparum) of the same compound?
**A.** The IC50 was 0.014 µM.

**Q.** And the “improvement in Pf potency” value ([1]; compound 9 relative to compound 7)?
**A.** Its value is > 10 fold.

**Q.** What about the IC50 (Dd2 PI4K Cpd 1) of the same compound?
**A.** The IC50 was 0.01 µM.

**Q.** What about the IC50 (Pf 7G8) of the same compound?
**A.** The IC50 was 0.0265 ± 0.005 µM.

**Q.** What about the IC50 (Pf DD2) of the same compound?
**A.** The IC50 was 0.0196 ± 0.007 µM.

**Q.** And the IC50 (Pf K1)?
**A.** The IC50 was 0.0338 ± 0.005 µM.

**Q.** What about the IC50 (Pf NF54) of the same compound?
**A.** The IC50 was 0.0185 ± 0.005 µM.

**Q.** And the IC50 (Pf W2)?
**A.** The IC50 was 0.0281 ± 0.008 µM.

**Q.** And the IC50 (Pf SB1)?
**A.** The IC50 was 0.0256 ± 0.013 µM.

**Q.** And the Ka [2, 3]?
**A.** Its Ka is 0.29 h⁻¹.

**Q.** And the Ka [2, 4]?
**A.** Its Ka is 0.62 h⁻¹.

**Q.** And the V/F [2, 4]?
**A.** Its V/F is 53 L/kg.

**Q.** And the CL/F [2, 3]?
**A.** Its CL/F is 122 mL/min/kg.

**Q.** And the CL/F [2, 4]?
**A.** Its CL/F is 117 mL/min/kg.

**Q.** And the V/F ([2]; compound 9, 10 mg kg-1, one compartment POPK model)?
**A.** The V/F was 70 L/kg.

**Q.** And the CLm ([2]; metabolite, Fixed)?
**A.** The CLm was 1330 mL/min/kg.

**Q.** What about the Ke0m ([2]; metabolite, Fixed) of the same compound?
**A.** The Ke0m was 0.06 h⁻¹.

**Q.** What about the Vcm ([2]; metabolite, Fixed) of the same compound?
**A.** Its Vcm is 29 L/kg.

**Q.** What about the IC50 (Dd2 DHODH DSM265) of the same compound?
**A.** Its IC50 is 0.0091 µM.

**Q.** What about the IC50 (Dd2 bc-1 ELQ-300) of the same compound?
**A.** The IC50 was 0.01 µM.

**Q.** What about the IC50 (PfATP4 Cpd 3) of the same compound?
**A.** Its IC50 is 0.011 µM.
